Patent publication US20120305840A1, “CARBON DIOXIDE ABSORBING SOLUTION” (Kabushiki Kaisha Toshiba, priority 2009, published 2012)

Columns and labels:
[1] = Volatility: decreased amount of absorbent by 1H-NMR after heating; format: physicochemical; settings: 60 minutes at 140° C.
Description: According to the decreased amount, the volatility was evaluated. The less the decreased amount was, the less volatile the absorbent was regarded as. In general, if containing a less volatile absorbent, the absorbing solution can be repeatedly regenerated without decrease of the absorbent content.

[2] = Precipitation in the absorbing solution after absorbing carbon dioxide; format: physicochemical

SMILES | volatility of the absorbent (in words) [1] | precipitation in the absorbing solutions on absorbing carbon dioxide to form products [2]
O=C([O-])C1CNC1.[K+] [absorbent 1, potassium 1-aza-azetidine-3-carboxylate] | hardly volatilize | did not precipitate
O=C([O-])C1CCCN1.[K+] (stereo not shown) [absorbent 2, pyrrolidine-2-carboxylic acid salt] | hardly volatilize | did not precipitate
